Marks after values point to notes of the source that are not given here.
Assays:
[1] = test system: carrageenan-induced paw edema in rats; test: Carrageenan-induced paw edema (anti-inflammatory activity); type: in vivo; settings: 10 mg/kg oral; for % Change in Paw Height (Mean ± SEM): n = 5
Procedure: Albino rats (150–180 g) were used. The rats were divided into 11 experimental groups of five rats each. One hour after oral administration of the compounds (10 mg/kg), 0.1 mL of 1% carrageenan solution was injected in the left hind paw of each animal. Rat paw volumes were measured with a digital caliber plethysmometer (UGO Basile, Varese, Italy) used to measure inflammation height at 0, 1, 2, and 3 h after carrageenan injection. The percentage increase in inflammation in the left hind paw, in comparison to the uninjected right hind paw, was determined, calculated, and expressed as the amount of inflammation. […] The anti-inflammatory activity of the selected analgesic compounds after 3 h was expressed as percentage inhibition of edema, which was calculated according to the following equation: (2) Inhibition of edema (%) =Vcont−Vtest/Vcont×100* where V cont is the edema volume in the control group, and V test is the edema volume in the group of the screened compound.

human recombinant COX-2 = biological target: T1, human recombinant COX-2 (Homo sapiens, UniProt P35354); test: In vitro COX inhibitor screening assay (EIA kit, Cayman), COX-2; type: biochemical; settings: for COX2 (SI) selectivity index: COX-1 IC50 / COX-2 IC50; for IC50: COX-2, mean of two determinations, enzyme kit, read-out: COX2 IC50
T1 construct: purchased Cayman Chemical, Ann Arbor, MI, USA 560131
T1 sequence (P35354 18-604): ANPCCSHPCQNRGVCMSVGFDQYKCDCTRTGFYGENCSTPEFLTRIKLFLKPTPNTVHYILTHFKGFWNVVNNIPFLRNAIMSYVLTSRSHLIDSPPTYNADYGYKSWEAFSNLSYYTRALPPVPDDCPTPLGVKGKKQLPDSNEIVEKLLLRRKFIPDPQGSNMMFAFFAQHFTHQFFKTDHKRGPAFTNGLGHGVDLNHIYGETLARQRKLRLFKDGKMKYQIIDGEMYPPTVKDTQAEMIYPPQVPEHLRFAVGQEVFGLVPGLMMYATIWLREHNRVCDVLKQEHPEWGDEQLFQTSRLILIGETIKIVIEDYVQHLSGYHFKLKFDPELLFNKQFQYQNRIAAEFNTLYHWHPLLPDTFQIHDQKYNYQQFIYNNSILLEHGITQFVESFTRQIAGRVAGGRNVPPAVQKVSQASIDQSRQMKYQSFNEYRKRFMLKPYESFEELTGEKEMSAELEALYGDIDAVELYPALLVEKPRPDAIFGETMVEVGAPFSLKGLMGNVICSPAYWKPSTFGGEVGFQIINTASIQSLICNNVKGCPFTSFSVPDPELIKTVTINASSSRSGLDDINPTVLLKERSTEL
Procedure: (§1) Furthermore, the selectivity index for COX-2 (COX-1 IC50 / COX-2 IC50) was calculated for the compounds.

ovine COX-1 = biological target: T2, ovine COX-1 (Ovis aries, UniProt P05979); test: In vitro COX inhibitor screening assay (EIA kit, Cayman), COX-1; type: biochemical; settings: mean of two determinations, enzyme kit, read-out: COX1 IC50
T2 construct: purchased Cayman Chemical, Ann Arbor, MI, USA 560131
T2 sequence (P05979 25-600): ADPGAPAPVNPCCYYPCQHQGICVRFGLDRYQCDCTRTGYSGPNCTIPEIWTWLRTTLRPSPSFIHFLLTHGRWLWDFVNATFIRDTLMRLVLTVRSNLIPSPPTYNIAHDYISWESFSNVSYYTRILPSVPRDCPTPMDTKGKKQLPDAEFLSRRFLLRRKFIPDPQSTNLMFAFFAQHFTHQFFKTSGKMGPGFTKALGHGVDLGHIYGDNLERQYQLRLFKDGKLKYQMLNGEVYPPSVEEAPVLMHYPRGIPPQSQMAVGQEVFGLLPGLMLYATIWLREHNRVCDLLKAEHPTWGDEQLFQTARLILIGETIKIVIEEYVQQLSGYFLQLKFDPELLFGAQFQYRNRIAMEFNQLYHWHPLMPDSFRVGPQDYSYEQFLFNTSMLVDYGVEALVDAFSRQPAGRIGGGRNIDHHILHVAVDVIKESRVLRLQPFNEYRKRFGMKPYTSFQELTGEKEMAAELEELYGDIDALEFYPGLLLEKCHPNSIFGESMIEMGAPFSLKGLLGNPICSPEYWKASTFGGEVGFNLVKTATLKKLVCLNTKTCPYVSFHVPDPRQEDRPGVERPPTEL
Procedure: as §1

[2] = test system: acetic acid-induced writhing in mice; test: Acetic acid-induced writhing test (analgesic activity); type: in vivo; settings: 10 mg/kg p.o., n = 5; for Writhing Number in 20 min (Mean ± SEM): acetic acid 1 h after dosing; for Analgesic Activity (% protection): writhing test
Procedure: The analgesic activity of the compounds was performed using the writhing test as described by Gawade et al.. Mice weight ranged from 25 to 30 g. Then, mice were divided into 18 different groups, each containing five animals. The animals fasted for 8 h before the experiment. Administration of the compounds (10 mg/kg, p.o.) was performed orally. Equal doses of diclofenac as the reference drug and saline as a negative control were also administrated orally. Writhing was induced one hour after compound administration by using 0.1 mL of 1% glacial acetic acid at a volume of 0.1 mL/10 g body weight. The number of writhing responses (stretching of the abdomen, extension of hind limbs, twisting of the trunk, and elongation of the body) observed was counted for 20 min. The protection percentile against acetic acid-induced writhing was calculated according to the following formula: (1) Analgesic activity (%) =n−n′/n×100* where n is the mean number of writhes of the control group, and n’ is the mean number of writhes of the tested compound group.

[3] = test system: interleukin-1 beta (IL-1 β); test: ELISA of serum interleukin-1 beta after paw edema test; type: in vivo, rats; settings: rat serum at the end of the paw edema test, mean ± SEM, n = 5
Procedure: IL1 is one of the important inflammatory mediators and is used to confirm the anti-inflammatory activities of new anti-inflammatory compounds. At the end of the paw edema test, blood samples were collected from the orbital axis of the eye under light ether anesthesia. Sera were separated after centrifugation of blood at 5000 rpm for 15 min; the sera were stored at –80 °C until the ELISA assay was performed according to the manufacturer instructions.

Row | COX2 (SI) selectivity index (human recombinant COX-2) | IC50 (human recombinant COX-2) [nM] | IC50 (ovine COX-1) [nM] | melting point [°C] | Structure (SMILES) | % Change in Paw Height (Mean ± SEM) ([1]; 1 hr after carrageenan) | % Change in Paw Height (Mean ± SEM) ([1]; 2 hr after carrageenan) | Anti-Inflammatory Activity (% Inhibition of Edema) ([1]; 3 hr after carrageenan) [%] | % Change in Paw Height (Mean ± SEM) ([1]; 3 hr after carrageenan) | Writhing Number in 20 min (Mean ± SEM) [2] | Analgesic Activity (% protection) [2] | IL-1 β Concentration [3]
1 | 81 | 85 | 6850 | > 350 | COc1c2ccoc2cc2oc(C3=NC4=CC(=O)N5C(=O)CSC5N4C=N3)c(C)c12 (centres unmarked) [Compound 11a, 8-(4-methoxy-3-methylbenzo[1,2-b:5,4-b`]difuran-2-yl)-2-hydro-5H,11aH-thiazolo[2’,3’: 2,3]pyrimido[1,6-a][1,3,5]triazine-3,5-dione] | 0.30 ± 0.02 ^a % | 0.24 ± 0.01 ^a % | 55 | 0.28 ± 0.01 ^a % | 39 ± 2.1 ^a | 36 ± 0.75 ^a % | 43 ± 1.15 ^b Pg /mL
2 | 83 | 80 | 6600 | > 350 | COc1c2occc2c(OC)c2c(C)c(C3=NC4=CC(=O)N5C(=O)CSC5N4C=N3)oc12 (centres unmarked) [Compound 11b, 8-(4,8-dimethoxy-3-methylbenzo[1,2-b:5,4-b`]difuran-2-yl)-2-hydro-5H,11aH-thiazolo [2’, 3’:2,3]pyrimido[1,6-a][1,3,5]triazine-3,5-dione] | 0.29 ± 0.01 ^a % | 0.23 ± 0.01 ^a % | 56 | 0.27 ± 0.02 ^a % | 37 ± 2.3 ^a | 38 ± 0.80 ^a % | 42 ± 0.98 ^b Pg /mL
3 | 85 | 75 | 6400 | > 350 | COc1c2ccoc2cc2oc(C3=NC4=CC(=O)N5C(=O)CSC5N4C(=O)CO3)c(C)c12 (centres unmarked) [Compound 12a, 8-(4-methoxy-3-methylbenzo[1,2-b:5,4-b`]difuran-2-yl)-5H,12aH-thiazolo[2’,3’:2,3] pyrimido[6,1-d][1,3,5]oxadiazepine-3,5,11(2H,10H)-trione] | 0.28 ± 0.02 ^a % | 0.23 ± 0.01 ^a % | 57 | 0.26 ± 0.01 ^a % | 35 ± 1.2 ^a | 40 ± 1.50 ^a % | 41 ± 0.85 ^b Pg /mL
4 | 87 | 70 | 6100 | > 350 | COc1c2occc2c(OC)c2c(C)c(C3=NC4=CC(=O)N5C(=O)CSC5N4C(=O)CO3)oc12 (centres unmarked) [Compound 12b, 8-(4,8-dimethoxy-3-methylbenzo[1,2-b:5,4-b`]difuran-2-yl)-5H,12aH-thiazolo[2’,3’:2,3] pyrimido[6,1-d][1,3,5]oxadiazepine-3,5,11(2H,10H)-trione] | 0.28 ± 0.01 ^a % | 0.22 ± 0.02 ^a % | 58 | 0.25 ± 0.02 ^a % | 34 ± 1.7 ^a | 41 ± 1.10 ^a % | 40 ± 0.22 ^b Pg /mL

More lines, now with the values behind:

Row | Structure (SMILES) | COX2 (SI) selectivity index (human recombinant COX-2) | IC50 (human recombinant COX-2) [nM] | IC50 (ovine COX-1) [nM] | melting point [°C] | % Change in Paw Height (Mean ± SEM) ([1]; 1 hr after carrageenan) | % Change in Paw Height (Mean ± SEM) ([1]; 2 hr after carrageenan) | Anti-Inflammatory Activity (% Inhibition of Edema) ([1]; 3 hr after carrageenan) [%] | % Change in Paw Height (Mean ± SEM) ([1]; 3 hr after carrageenan) | Writhing Number in 20 min (Mean ± SEM) [2] | Analgesic Activity (% protection) [2] | IL-1 β Concentration [3]
5 | COc1c2ccoc2cc2oc(C3=NC4=CC(=O)N5C(=O)C(=Cc6ccccc6)SC5N4C(=O)C(=Cc4ccccc4)O3)c(C)c12 (centres unmarked) [Compound 13a, 2,10-di(benzylidene)-8-(4-methoxy-3-methylbenzo[1,2-b:5,4-b`]difuran-2-yl)-5H,12aH-thiazolo[2’,3’:2,3]pyrimido[6,1-d][1,3,5]oxadiazepine-3,5,11(2H,10H)-trione] | 90 | 64 | 5790 | > 350 | 0.27 ± 0.02 ^a % | 0.21 ± 0.01 ^a % | 59 | 0.24 ± 0.01 ^a % | 33 ± 1.9 ^a | 42 ± 1.90 ^a % | 39 ± 0.31 ^b Pg /mL
6 | COc1c2ccoc2cc2oc(C3=NC4=CC(=O)N5C(=O)C(=Cc6ccc(Cl)cc6)SC5N4C(=O)C(=Cc4ccc(Cl)cc4)O3)c(C)c12 (centres unmarked) [Compound 13b, 2,10-bis(4-chlorobenzylidene)-8-(4-methoxy-3-methylbenzo[1,2-b:5,4-b`]difuran-2-yl)-5H, 12aH-thiazolo[2’,3’:2,3]pyrimido[6,1-d][1,3,5]oxadiazepine-3,5,11(2H,10H)-trione] | 95 | 55 | 5200 | > 350 | 0.23 ± 0.02 ^a % | 0.18 ± 0.01 ^a % | 63 | 0.20 ± 0.02 ^a % | 29 ± 1.5 ^a | 46 ± 1.6 ^a % | 35 ± 0.28 ^b Pg /mL
7 | COc1ccc(C=C2OC(c3oc4cc5occc5c(OC)c4c3C)=NC3=CC(=O)N4C(=O)C(=Cc5ccc(OC)cc5)SC4N3C2=O)cc1 (centres unmarked) [Compound 13c, 8-(4-methoxy-3-methylbenzo[1,2-b:5,4-b`]difuran-2-yl)-2,10-bis(4-methoxybenzylidene)-5H,12aH-thiazolo[2’,3’:2,3]pyrimido[6,1-d][1,3,5]oxadiazepine-3,5,11(2H,10H)-trione] | 92 | 60 | 5520 | > 350 | 0.25 ± 0.01 ^a % | 0.19 ± 0.02 ^a % | 61 | 0.22 ± 0.02 ^a % | 31 ± 1.1 ^a | 44 ± 0.85 ^a % | 37 ± 0.57 ^b Pg /mL
